Results: ChEMBL document CHEMBL3102847, “Structure of the σ1 receptor and its ligand binding site” (J Med Chem, 2013)

Experiments:
[1] = biological target: T1, Sigma non-opioid intracellular receptor 1 (Rattus norvegicus, UniProt Q9R0C9); test: Displacement of [125I]IACoc from sigma 1 receptor in rat liver microsomes
[2] = biological target: T1, Sigma non-opioid intracellular receptor 1; test: Displacement of [3H]-(+)-pentazocine from sigma 1 receptor in rat liver homogenates; type: tissue-based
[3] = biological target: T2, Sigma non-opioid intracellular receptor 1 (Homo sapiens, UniProt Q99720); test: Displacement of [125I]N-IAC44 from sigma 1 receptor (unknown origin)
T2 sequence (Q99720 whole entry): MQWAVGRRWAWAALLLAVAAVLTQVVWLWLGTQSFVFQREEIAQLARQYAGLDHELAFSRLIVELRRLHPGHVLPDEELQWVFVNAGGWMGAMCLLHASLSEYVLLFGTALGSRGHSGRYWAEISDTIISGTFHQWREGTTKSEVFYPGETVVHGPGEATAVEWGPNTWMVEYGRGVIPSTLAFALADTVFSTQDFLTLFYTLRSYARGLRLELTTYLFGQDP

[4] = biological target: T2, Sigma non-opioid intracellular receptor 1; test: Displacement of [125I]N-IACoc from sigma 1 receptor (unknown origin)

T1 sequence (Q9R0C9 whole entry): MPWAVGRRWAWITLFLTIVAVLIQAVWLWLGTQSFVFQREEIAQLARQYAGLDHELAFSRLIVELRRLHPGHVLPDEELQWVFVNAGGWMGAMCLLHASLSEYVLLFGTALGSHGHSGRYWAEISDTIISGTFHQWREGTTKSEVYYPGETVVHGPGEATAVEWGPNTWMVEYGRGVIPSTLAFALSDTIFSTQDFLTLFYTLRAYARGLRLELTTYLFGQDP

COC(=O)[C@H]1[C@@H](OC(=O)c2ccc(N=[N+]=[N-])c([125I])c2)C[C@@H]2CC[C@H]1N2C
Ki [1]: 0.126 nM

CN(C)CCc1c[nH]c2ccccc12 [N,N-DIMETHYLTRYPTAMINE]
Ki [2]: 15400 nM

CCCN(CCCc1ccccc1)CCc1ccc(N=[N+]=[N-])c([125I])c1
Kd [3]: 7.2 nM

COC(=O)[C@H]1[C@@H](OC(=O)c2ccccc2)C[C@@H]2CC[C@H]1N2CCc1ccc(N=[N+]=[N-])c([125I])c1
Kd [4]: 11 nM
